Data from the NIST ThermoML archive (doi:10.1016/j.jct.2015.08.024).
Numbers after ± are expanded uncertainties.

Conditions: Liquid, Closed cell (Static) method

Compound	vapor or sublimation pressure (323.15 K) [kPa]	vapor or sublimation pressure (333.15 K) [kPa]	vapor or sublimation pressure (343.15 K) [kPa]	vapor or sublimation pressure (353.15 K) [kPa]
FC(F)CC(F)(F)F [1,1,1,3,3-pentafluoropropane]	344.4 ± 1.6	463.2 ± 1.9	609.8 ± 2.4	789.8 ± 2.9
CC(F)F [1,1-difluoroethane]	1177.3 ± 3.7	1500.6 ± 4.7	1886.8 ± 5.9	2342.7 ± 7.3
